Experimental data published in patent US20240216369A1, “THE USE OF A SPLICING MODULATOR FOR A TREATMENT SLOWING PROGRESSION OF HUNTINGTON'S DISEASE” (Novartis AG, priority 2019, published 2024).
“Also recorded” adds a separate entry of the source.

System: mutant HTT protein
Test: Repeat oral dosing in BacHD mice: mutant HTT protein in tissues (Western blot)
Assay type: in vivo
Method: For the repeat dosing study, twenty-four BacHD mice (FVB/N-Tg(HTT*97Q)IXwy/J transgenic mice—Jackson Laboratories) were used for the experiment. Animal protocols were approved by the Children's Hospital of Philadelphia Institutional Animal Care and use Committee. Mice were housed in a temperature-controlled environment on a 12-h light/dark cycle. Food and water were provided ad libitum.
For the repeat dosing study, branaplam or vehicle was administered by oral gavage 3 times a week for 3 consecutive weeks. Mice were divided in 4 groups (n=6 mice/group) and treated with branaplam (12 mg/kg—1 group, or 24 mg/kg—2 groups), or vehicle (1 groups) as control. Mice were firmly restrained by grasping the loose skin to immobilize the head, maintained in a vertical position and a 22- to 26-gauge gavage needle was placed in the side of the mouth. The needle was guided following the roof of the mouth into the esophagus and allowed to gently enter in the stomach. The amount of branaplam or vehicle administrated to each mouse was based on the weight recorded the day of dosing.
At 24 h (vehicle and branaplam 12 mg/Kg & 24 mg/Kg), and 72 h (branaplam 24 mg/Kg) after the last treatment, blood, CSF, and tissue samples were obtained for PK and PD analysis. To collect CSF, mice were placed in a rodent anesthesia induction chamber where they are exposed to 4-5% isoflurane in 100% oxygen carrier gas. Once an appropriate plane of anesthesia was achieved, they were moved to a nose cone so that maintenance levels of isoflurane (1-3%) could be delivered throughout the procedure. The dorsal aspect of their cervical and occipital region was surgically prepped to visualize the dura mater under a microscope. A glass micropipette attached to a micromanipulator was introduced to the cisterna magna via a puncture through the dura mater at a point where no vasculature was visualized, and CSF was allowed to flow into the micropipette via capillary action. After approximately 15-30 minutes, the micropipette was removed from the cisterna magna, the CSF sample was transferred into Eppendorf tubes, flash frozen in liquid nitrogen, and stored at −80° C.
Following CSF collection, mice were kept under anesthesia with isoflurane. Blood was obtained via submandibular vein bleeds and collected for RNA extraction (PD analysis) using RNAprotect Animal Blood Tubes, and plasma (PK analysis) using K2EDTA coated tubes. […]
Snap-frozen mouse tissue samples were homogenized in RIPA buffer with protease and phosphatase inhibitor (Thermo Scientific) by Precellys at 6000 rpm for 40 sec. […] Total protein concentration was quantified using the BCA protein Assay (Thermo Scientific). […] Protein bands were quantified by Image J.

[1] = 12 or 24 mg/kg oral, thrice weekly for three weeks, 24 h post-dosing, listed as branaplam

CC1(C)CC(Oc2ccc(-c3ccc(-c4cn[nH]c4)cc3O)nn2)CC(C)(C)N1 [Compound 18, 5-(1H-pyrazol-4-yl)-2-(6-((2,2,6,6-tetramethylpiperidin-4-yl)oxy)pyridazin-3-yl)phenol]
mutant HTT protein, 72 h relative to 24 h (24 mg/kg cohort, takedown 72 h post-dose): trend towards further lowering
mutant HTT protein in the cortex [1]: dose dependent, significant lowering; also recorded: lowers
mutant HTT protein in the striatum [1]: dose dependent, significant lowering; also recorded: lowers
mHTT protein in the liver (12 or 24 mg/kg oral, thrice weekly for three weeks, listed as branaplam): robust lowering; also recorded: lowers
